Patent publication US5759996A, “Peptides useful for altering αv β3 -mediated binding” (priority 1995, dated 1998)
Where a SMILES comes first, the peptide text is derived from it. Bridges are numbered along the chain shown (N, C = ends). [ ]: non-standard residue; d: D form. Tic = O=C(O)[C@@H]1Cc2ccccc2CN1; Pen = CC(C)(S)[C@H](N)C(=O)O; Mpa = O=C(O)CCS

Experiments:
[1] = molecular target: αv β3 integrin receptor (Homo sapiens, UniProt P05106+P06756); assay: series of in vitro assays of Example II (potency and selectivity summary)
[2] = half-life of peptide in serum; conditions: in vivo
Text: Increased stability of a disulfide bonded peptide of the invention also can be conferred by incorporating a hydrophobic amino acid residue such as phenylalanine at position X1 or X8 or both X1 and X8 in an RGDNTic (SEQ ID NO: 31) or RGDDV (SEQ ID NO: 1) pharmacophore as disclosed herein. The presence of such a residue can stabilize the disulfide bond against enzymatic degradation (see Bauer et al., Life Sciences 31:1133-1140 (1982)). […] In addition, the half-life of a peptide in a subject can be determined, for example, by high performance liquid chromatography (HPLC) of serum samples collected from the subject at various times following administration of the peptide. One skilled in the art would know how to select appropriate elution buffers for HPLC based on the physico-chemical properties of a particular peptide.

[3] = molecular target: T1, purified human α5 β1 (FnR) (Homo sapiens, UniProt P05556+P08648); assay: α5 β1 ELISA (competitive); type: binding
T1 construct: Fibronectin receptor (FnR) was purified from 100 mM octyl-glucopyranoside-extracted human placenta; from tissue; host or cells: human placenta
Procedure: Peptide binding to purified human α5 β1 (FnR) also was determined using a competitive ELISA. In these assays, Fn was immobilized to the wells and the binding of solubilized FnR in the presence of various concentrations of a peptide analogue was determined using a mouse monoclonal antibody to human β1 (clone P4C10; Gibco) and specific binding was visualized using a second antibody.
Microtiter wells were coated at RT by adding 100 μl of 2 μg/ml human Fn in TBS and incubating the plates overnight at 4° C. Following incubation, the plates were washed 3× with TBS/"TWEEN 20" (polyoxyethylenesorbitan monolaurate). RGD peptides were diluted in TBS containing 20 mM OG and 2 mM MnCl2 and 50 μl was added to wells at 10-fold serial dilutions. FnR was diluted in the same buffer and 50 μl was added to each well.
The plates were incubated for 3 hr at RT and washed with 300 μl TBS/"TWEEN 20" (polyoxyethylenesorbitan monolaurate). Bound receptor was incubated with 100 μl of the monoclonal anti-β1 antibody for 2 hr, then washed 3× with TBS/"TWEEN 20" (polyoxyethylenesorbitan monolaurate). […] The amount of bound second antibody was determined as described above.
The IC50 values for various RGD peptides were calculated by determining the concentration of a peptide that inhibited binding of Vn to αv β5 or αv β3 or of Fn to α5 β1, by 50%. […]

[4] = parathyroid hormone-induced hypercalcemia in mice; type: in vivo; conditions: parathyroidectomized mice, 4 hr infusion, various doses
Text: Parathyroid hormone (PTH) activates osteoclasts, which are involved in bone resorption. Associated with the increased osteoclast activity is an increase in serum calcium. The PTH-induced hypercalcemia assay measures the level of serum calcium, which is an indication of bone resorption in a subject (Fischer et al., Endocrinology 132:1411-1413 (1993), which is incorporated herein by reference).
Swiss-Webster mice, which had been parathyroidectomized two weeks prior to beginning the assay, were obtained from Taconic Lab Animals and Services (Germantown N.Y.). Femoral vein catheters (PE-50 fused with PE10 polyethylene tubing; Becton Dickinson; Parsippany, N.J.) were installed in the mice, flushed and locked with heparinized saline (1:10), sutured to adjacent muscle and internalized within the inguinal space of the incision before closing the incision with wound clips. […]
The experiment was initiated by feeding the mice a calcium-deficient diet overnight, then injecting the mice the following morning with a bolus of 0.2 mg PTH/kg (hPTH 1-34; Bachem; Torrance Calif.), intravenously. […] Various doses of a peptide or vehicle were infused into an animal for 4 hr, then ionized serum calcium again was measured. […] Serum calcium measurements were expressed as the difference between the value 30 min before the PTH pulse and 4 hr after peptide infusion was started. […]

[5] = rabbit, in vivo; cited from earlier work
[6] = system: osteoclasts; conditions: cited from earlier work
[7] = cited from earlier work

In the case of `CC(=O)N[C@H]1CSSC[C@@H](C(N)=O)NC(=O)[C@@H]2Cc3ccccc3CN2C(=O)[C@H](CO)NC(=O)[C@H](CC(=O)O)NC(=O)CNC(=O)[C@H](CCCNC(=N)N)NC1=O` [compound 812, Ac-CRGDS(Tic)C-NH2] (Ac-CRGDS[Tic]C-NH2; disulfide 1-7), the “activity (FIG. 2 assays)” value ([1]; minimal-element peptides) is reported as “demonstrate activity” and the “potency (active at relatively low concentration)” value ([1]; summary of assays) is reported as “particularly potent”.

For `CC(=O)N[C@@H]1C(=O)N[C@@H](Cc2ccccc2)C(=O)N[C@@H](C)C(=O)N[C@@H](CCCNC(=N)N)C(=O)NCC(=O)N[C@@H](CC(=O)O)C(=O)N[C@@H](CC(N)=O)C(=O)N2CCC[C@H]2C(=O)N[C@H](C(N)=O)CSSC1(C)C` [peptide 214] (Ac-[Pen]FARGDNPC-NH2; disulfide 1-9), the “potency (active at relatively low concentration)” value ([1]; summary of assays) was “particularly potent”.

For `CC(=O)N[C@@H](Cc1ccccc1)C(=O)N[C@H]1CSSC[C@@H](C(N)=O)NC(=O)[C@H](Cc2ccccc2)NC(=O)[C@H]([C@@H](C)O)NC(=O)[C@H](CC(=O)O)NC(=O)CNC(=O)[C@H](CCCNC(=N)N)NC1=O` [peptide 220] (Ac-FCRGDTFC-NH2; disulfide 2-8), the half-life in serum [2] was “relatively long half-life in serum”.

In the case of `C[C@@H]1NC(=O)[C@H](CCCNC(=N)N)NC(=O)CNC(=O)CC[C@@H](C(N)=O)NC(=O)[C@@H]2CCCN2C(=O)[C@H](CC(N)=O)NC(=O)[C@H](CC(=O)O)NC(=O)CNC(=O)[C@H](CCCNC(=N)N)NC1=O` [compound 390] (GRARGDNPE-NH2; lactam N-9), the “receptor selectivity α5 β1 versus αv β5” value [3] is reported as “more selective toward α5 β1 than toward αv β5”.

In the case of `CC(C)[C@@H]1NC(=O)[C@H](CC(=O)O)NC(=O)[C@H](CC(=O)O)NC(=O)CNC(=O)[C@H](CCCNC(=N)N)NC(=O)CCSSC[C@@H](C(N)=O)NC1=O` [compound 191] ([Mpa]RGDDVC-NH2; disulfide 1-7), the “PTH-induced rise in serum ionized calcium” value [4] is reported as “decreased the PTH-induced rise in serum ionized calcium in a dose responsive manner”.

For G(Pen)GRGDSPCA, the neointimal hyperplasia [5] is listed as “inhibit neointimal hyperplasia”.

For `CC(=O)N[C@H]1CSSC(C)(C)[C@@H](C(N)=O)NC(=O)[C@@H]2CCCN2C(=O)[C@H](CC(N)=O)NC(=O)[C@H](CC(=O)O)NC(=O)CNC(=O)[C@H](CCCNC(=N)N)NC1=O` [compound 228] (Ac-CRGDNP[Pen]-NH2; disulfide 1-7), the “receptor selectivity (summary)” value ([1]; summary of assays) was “particularly receptor selective”.

For Echistatin, the binding to osteoclasts [6] is given as “binds to osteoclasts in a nonselective manner”, the “bone resorption in vitro” value ([6]; in vitro) is given as “inhibits bone resorption in vitro” and the “bone resorption in vivo” value [7] is given as “inhibits bone resorption”.
